From US8263353B2, “Method for detecting autoprocessed, secreted PCSK9” (Merck Sharp & Dohme Corp., priority 2007, dated 2012)

Tests used:
Assay type in all cases: cell-based
PCSK9 processing [1] = biological target: T1, PCSK9 processing (Homo sapiens, UniProt Q8NBP7, D186A/G670E/V474I); test: Western blot of HEK293 cells stably expressing PCSK9 mutant D186A; conditions: HEK293 stable cell line; FIG. 11A
T1 construct: expressed in transfected cells
Procedure: (§1) Cells carrying vector alone (pcDNA3.1) or vector plus PCSK9 (PCSK9-152 FLAG-V5/His and PCSK9-152 FLAG-V5/His-S386A) were plated in 1×DMEM containing 1 mg/ml G418 supplemented with 10% FBS. After 24 hr, the media was switched to DMEM media lacking serum. After an additional 6 hr, the media was removed and the cells were lysed in RIPA buffer (TEKNOVA) plus Complete protease inhibitor cocktail (Roche). Protein concentration was assayed with BCA Protein Assay Kit (Pierce). […] of proteins from lysate or 15 μl media were loaded on 10-20% Tris-Glycine gels (Invitrogen). Following transfer, membranes were successively incubated with 1:5000 anti-VS (Invitrogen), 1:3000 anti-FLAG ml (Sigma-Aldrich Co.) or 1:3000 anti_FLAG m2 (Sigma-Aldrich Co.) primary antibody and 1:3000 anti-mouse IgG (H+L) alkaline phosphatase conjugate (Promega). Bands were subsequently detected using a 1-step NBT/BCIP Kit (Pierce) according to manufacturer's instructions.
420:55-67. […] Media from the D186A stable cell line was purified using column chromatography (as described) to obtain both purified nonprocessed and processed D186A (FIG. 11B). Similar to the WT PCSK9 protein processed D186A retains the pro domain after several column purifications (FIG. 11B).

PCSK9 processing [2] = biological target: T2, PCSK9 processing (Homo sapiens, UniProt Q8NBP7, G670E/V474I); test: Co-transfection of PCSK9 pro domain with wild type V5/His-tagged PCSK9, western blot of cell lysate and media; conditions: co-transfected pro domain
T2 construct: expressed in transfected cells
Procedure: FIGS. 10A and 10B illustrate inhibition of PSCK9 processing through co-transfection of PCSK9 pro domain. The figure illustrates the inhibition of PCSK9 processing is similar whether the domain is untagged, or tagged at the N-terminus with either an HA or His tag. […] The lanes are in order wild-type; wild-type; pro domain; HA pro domain; His pro domain.
as §1, with “instructions. […]” for “instructions.”

[3] = tested on: diI-LDL uptake in HEK293 cells; test: DiI-LDL uptake assay (PCSK9-dependent LDL-uptake assay)
Procedure: Blood for LDL isolation was obtained from healthy human volunteers. Blood (200 ml) was collected in EDTA tubes and spun at 15,000 rpm for 15 min at 4° C. Plasma density was adjusted to 1.02 g/ml with sodium bromide and the tubes were centrifuged at 45,000 rpm in Ti70 ultracentrifuge rotor for 20 hr. The VLDL layer was removed and the bottom layer was recalibrated to a density of 1.063 g/ml with sodium bromide. The tubes were again centrifuged at 45,000 rpm in Ti70 rotor for 72 hr. The LDL layer was removed and dialysed against PBS pH 7.4 and 0.5 M EDTA. The final protein concentration was determined using a BCA Protein Assay Kit. LDL was labeled with a fluorescent DiI particle (Molecular Probes). A stock solution containing 3 mg of DiI dissolved in 1 ml of dimethyl sulfoxide (DMSO) was prepared. This stock solution of D11 was added to LDL at a final concentration of 135 μg of DiI to 1 ml of LDL. The labeling reaction was incubated at 37° C. for 24 hr in the dark followed by LDL isolation as mentioned above.
HEK293 cells stably expressing the vector pcDNA3.1 alone were plated in a 96-well poly D-lysine coated plate (Corning) at a density of 30,000 cells/well in 1×DMEM, containing 1 mg/ml G418 and 10% FBS (HEK293). A similar plating protocol was followed for HepG2 and CHO cells except that G418 was not added to the media. After 24 hr, the media was switched to DMEM media lacking serum. After 18 hr, the media was removed and the cells were washed with OptiMEM (Invitrogen). Purified PCSK9 protein was added to the cells in 100 μl of mixture B (DMEM containing 10% lipoprotein deficient serum (LPDS) (Intracel) and 10 μg/ml dI-LDL). To measure non-specific binding, 100 μl of mixture B that also contained 400 μg/ml unlabeled LDL was added to control wells. The plates were incubated at 37° C. for 6.5 hours and the cells were washed quickly in Tris-buffered saline (TBS, Biorad) containing 2 mg/ml Bovine Serum Albumin (BSA) (Sigma). The wash step was repeated, but this time the wash buffer was incubated for 2 min with the cells. Last, the cells were quickly washed twice with TBS (without BSA) and lysed in 100 μl RIPA buffer. The lysate was transferred to a 96-well black plate (Thermo Labsystem) and fluorescence was measured using a SpectraMAX tunable spectrofluorometer (Molecular Devices) at an excitation wavelength of 520 nm and an emission wavelength of […] Total cellular protein was measured in each well using a BCA Protein Assay and the fluorescence units were normalized to total protein. The amount of specific LDL uptake (specific counts) is the difference between the total counts measured (in the absence of unlabeled LDL) and the counts measured in the presence of an excess of unlabeled LDL (non-specific background fluorescence). […]

T2 sequence (Q8NBP7 31-692 V474I/G670E): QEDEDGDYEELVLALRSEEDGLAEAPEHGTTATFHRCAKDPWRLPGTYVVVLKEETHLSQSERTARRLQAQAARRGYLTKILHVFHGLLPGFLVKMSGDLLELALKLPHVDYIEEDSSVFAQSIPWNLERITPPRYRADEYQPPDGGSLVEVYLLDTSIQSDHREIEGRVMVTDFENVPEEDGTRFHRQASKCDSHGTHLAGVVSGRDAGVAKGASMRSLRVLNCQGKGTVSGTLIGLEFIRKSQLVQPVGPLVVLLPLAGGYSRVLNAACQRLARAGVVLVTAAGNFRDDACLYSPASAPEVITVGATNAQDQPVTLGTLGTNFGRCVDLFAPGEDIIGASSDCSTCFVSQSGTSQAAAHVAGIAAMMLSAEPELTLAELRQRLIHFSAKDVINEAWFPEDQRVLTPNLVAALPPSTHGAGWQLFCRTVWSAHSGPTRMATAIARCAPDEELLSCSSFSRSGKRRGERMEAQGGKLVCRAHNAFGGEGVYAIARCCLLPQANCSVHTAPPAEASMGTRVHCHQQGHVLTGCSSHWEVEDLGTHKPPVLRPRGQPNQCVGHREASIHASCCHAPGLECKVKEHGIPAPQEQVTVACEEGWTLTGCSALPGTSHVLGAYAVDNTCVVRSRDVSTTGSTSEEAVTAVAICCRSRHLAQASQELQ
T1 sequence (Q8NBP7 31-692 D186A/V474I/G670E): as the sequence (Q8NBP7 31-692 V474I/G670E) above, with D156A counted along it

## D186A PCSK9 mutant: Human PCSK9 single catalytic-triad mutant D186A stably expressed in HEK293 cells
PCSK9 processing [1]
  extent of processing: 10-20%

## PCSK9 pro domain: Human PCSK9 pro domain (SEQ ID NO: 20, residues 31-152) expressed from co-transfected nucleic acid
PCSK9 processing [2]; cell lysate, FIG. 10A
  amount of processed PCSK9 in cell lysate compared to cells expressing wild type alone: reduced
PCSK9 processing [2]; media, FIG. 10B
  processed PCSK9 detected in the media: less processed PCSK9 was detected

## nonprocessed D186A: Purified secreted, nonprocessed form of human PCSK9 mutant D186A (SEQ ID NO: 34)
[3]; FIG. 11C
  fold less active than processed PCSK9 in PCSK9-dependent LDL uptake: ~20 fold
[3]; HEK293 cells, purified protein, FIG. 11C
  activity in PCSK9-dependent LDL-uptake assay: only weakly active

## processed D186A: Purified secreted, autoprocessed form of human PCSK9 catalytic-triad mutant D186A, retaining the pro domain
[3]; HEK293 cells
  fold weaker in potency than WT PCSK9: approximately 4 fold
[3]; HEK293 cells, purified protein, FIG. 11C, read-out: EC50 (amount of PCSK9 protein required for 50% inhibition of diI-LDL uptake)
  EC50: 189 nM
